biological target: Human cGAS amino acids 155-522 (Homo sapiens (Human), UniProt Q8N884); assay: cGAS biochemical activity assay (ATP remaining, Kinase-Glo Max luminescence); details: human cGAS 155-522, ATP remaining (Kinase-Glo Max); read-out: cGAS IC50
Sequence (Q8N884 157-522): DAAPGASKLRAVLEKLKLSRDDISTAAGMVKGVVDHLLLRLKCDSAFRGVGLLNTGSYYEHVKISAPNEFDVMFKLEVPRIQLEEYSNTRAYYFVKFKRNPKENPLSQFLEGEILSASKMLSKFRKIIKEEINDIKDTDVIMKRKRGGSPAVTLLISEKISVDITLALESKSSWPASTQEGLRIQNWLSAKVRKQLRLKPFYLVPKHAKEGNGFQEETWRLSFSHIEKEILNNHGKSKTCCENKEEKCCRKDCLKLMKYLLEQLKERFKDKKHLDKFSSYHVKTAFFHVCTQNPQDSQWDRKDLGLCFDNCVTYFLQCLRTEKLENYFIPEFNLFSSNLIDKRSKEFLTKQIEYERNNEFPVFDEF

SMILES	IC50 [µM]
Cc1[nH]c2c(-c3ccccc3)c(C(F)(F)F)nn2c(=O)c1-c1nc(C(N)=O)co1 [Compound C1102, 2-(5-methyl-7-oxo-3-phenyl-2-(trifluoromethyl)-4,7-dihydropyrazolo[1,5-a]pyrimidin-6-yl)oxazole-4-carboxamide]	20 to 250
Cc1[nH]c2c(-c3ccccc3)c(C(F)(F)F)nn2c(=O)c1-c1nnc(C2CCCCC2N)o1 (stereo not drawn) [Compound D1080, 6-(5-(2-aminocyclohexyl)-1,3,4-oxadiazol-2-yl)-5-methyl-3-phenyl-2-(trifluoromethyl)pyrazolo[1,5-a]pyrimidin-7(4H)-one]	> 250
COc1cccc2oc(-c3c(C)[nH]c4c(-c5ccc(C#N)cc5)c(C(F)(F)F)nn4c3=O)nc12 [Compound C1164, 4-(6-(4-methoxybenzo[d]oxazol-2-yl)-5-methyl-7-oxo-2-(trifluoromethyl)-4,7-dihydropyrazolo[1,5-a]pyrimidin-3-yl)benzonitrile]	> 250
Cc1[nH]c2c(-c3ccccc3)c(C(F)(F)F)nn2c(=O)c1-c1nnc(C2CCCCC2)s1 [Compound D1006, 6-(5-cyclohexyl-1,3,4-thiadiazol-2-yl)-5-methyl-3-phenyl-2-(trifluoromethyl)pyrazolo[1,5-a]pyrimidin-7(4H)-one]	< 20
Cc1[nH]c2c(-c3cccnc3)c(C(F)(F)F)nn2c(=O)c1-c1nc2c(o1)CCCC2 [Compound C1036, 5-methyl-3-(pyridin-3-yl)-6-(4,5,6,7-tetrahydrobenzo[d]oxazol-2-yl)-2-(trifluoromethyl)pyrazolo[1,5-a]pyrimidin-7(4H)-one]	> 250
Cc1[nH]c2c(-c3ccccc3)c(C#N)nn2c(=O)c1-c1ncco1 [Compound C1270, 5-methyl-6-(oxazol-2-yl)-7-oxo-3-phenyl-4,7-dihydropyrazolo[1,5-a]pyrimidine-2-carbonitrile]	< 20
Cc1[nH]c2c(-c3ccccc3)c(C(F)(F)F)nn2c(=O)c1-c1nnc(C(=N)N)o1 [Compound D1074, 5-(5-methyl-7-oxo-3-phenyl-2-(trifluoromethyl)-4,7-dihydropyrazolo[1,5-a]pyrimidin-6-yl)-1,3,4-oxadiazole-2-carboximidamide]	< 20
Cc1[nH]c2c(-c3ccccc3)c(C(F)(F)F)nn2c(=O)c1C(=O)Nc1ccccc1NS(=O)(=O)C1CCCCC1 [Compound A1119, N-(2-(cyclohexanesulfonamido)phenyl)-5-methyl-7-oxo-3-phenyl-2-(trifluoromethyl)-4,7-dihydropyrazolo[1,5-a]pyrimidine-6-carboxamide]	20 to 250
Cc1[nH]c2c(-c3ccccc3)c(C(F)(F)F)nn2c(=O)c1-c1nnc(C2CCOC2)o1 (stereo not drawn) [Compound D1013, 5-methyl-3-phenyl-6-(5-(tetrahydrofuran-3-yl)-1,3,4-oxadiazol-2-yl)-2-(trifluoromethyl)pyrazolo[1,5-a]pyrimidin-7(4H)-one]	20 to 250
COc1ccc(-c2nnc(Cc3c(C)[nH]c4c(-c5ccccc5)c(C(F)(F)F)nn4c3=O)o2)cc1 [Compound D1033, 6-((5-(4-methoxyphenyl)-1,3,4-oxadiazol-2-yl)methyl)-5-methyl-3-phenyl-2-(trifluoromethyl)pyrazolo[1,5-a]pyrimidin-7(4H)-one]	20 to 250
Cc1[nH]c2c(-c3ccccc3)c(C(F)(F)F)nn2c(=O)c1C(=O)Nc1cnccn1 [Compound A1024, 5-methyl-7-oxo-3-phenyl-N-(pyrazin-2-yl)-2-(trifluoromethyl)-4,7-dihydropyrazolo[1,5-a]pyrimidine-6-carboxamide]	< 20
Cc1[nH]c2c(-c3ccccc3)c(C(F)(F)F)nn2c(=O)c1-c1cccnc1 [Compound C1003, 5-methyl-3-phenyl-6-(pyridin-3-yl)-2-(trifluoromethyl)pyrazolo[1,5-a]pyrimidin-7(4H)-one]	20 to 250
COCCNC(=O)c1[nH]c2c(-c3ccccc3)c(C(F)(F)F)nn2c(=O)c1-c1nc2c(OC)cccc2o1 [Compound C1142, 6-(4-methoxybenzo[d]oxazol-2-yl)-N-(2-methoxyethyl)-7-oxo-3-phenyl-2-(trifluoromethyl)-4,7-dihydropyrazolo[1,5-a]pyrimidine-5-carboxamide]	< 20
Cc1[nH]c2c(-c3ccccc3)c(C(F)(F)F)nn2c(=O)c1-c1nnc(C2COCCN2C(=O)OCc2ccccc2)o1 (stereo not drawn) [Compound D1039, benzyl 3-(5-(5-methyl-7-oxo-3-phenyl-2-(trifluoromethyl)-4,7-dihydropyrazolo[1,5-a]pyrimidin-6-yl)-1,3,4-oxadiazol-2-yl)morpholine-4-carboxylate]	20 to 250
Cc1[nH]c2c(-c3ccccc3)c(C(F)(F)F)nn2c(=O)c1C1OC(=O)c2ccccc21 (stereo not drawn) [Compound C1168, 5-methyl-6-(3-oxo-1,3-dihydroisobenzofuran-1-yl)-3-phenyl-2-(trifluoromethyl)pyrazolo[1,5-a]pyrimidin-7(4H)-one]	20 to 250
Cc1[nH]c2c(-c3ccccc3)c(C(F)(F)F)nn2c(=O)c1C(=O)N1CCN(c2ccccc2)CC1 [Compound A1003, 5-methyl-3-phenyl-6-(4-phenylpiperazine-1-carbonyl)-2-(trifluoromethyl)pyrazolo[1,5-a]pyrimidin-7(4H)-one]	> 250
Cc1[nH]c2c(-c3ccccc3)c(C(F)(F)F)nn2c(=O)c1C(=O)N[C@H]1CCCC[C@@H]1O [Compound A1091, N-((1S,2S)-2-hydroxycyclohexyl)-5-methyl-7-oxo-3-phenyl-2-(trifluoromethyl)-4,7-dihydropyrazolo[1,5-a]pyrimidine-6-carboxamide]	20 to 250
COc1cccc2oc(-c3c(P(C)(C)=O)[nH]c4c(-c5ccccc5)c(C(F)(F)F)nn4c3=O)nc12 [Compound C1284, 5-(dimethylphosphoryl)-6-(4-methoxybenzo[d]oxazol-2-yl)-3-phenyl-2-(trifluoromethyl)pyrazolo[1,5-a]pyrimidin-7(4)-one]	< 20
COc1cccc2oc(-c3c(C4CCC(C(=O)O)CC4)[nH]c4c(-c5ccccc5)c(C(F)(F)F)nn4c3=O)nc12 (single isomer, unassigned) [Compound C1238, 4-(6-(4-methoxybenzo[d]oxazol-2-yl)-7-oxo-3-phenyl-2-(trifluoromethyl)-4,7-dihydropyrazolo[1,5-a]pyrimidin-5-yl)cyclohexane-1-carboxylic acid]	20 to 250
Cc1[nH]c2c(-c3ccccc3)c(C(F)(F)F)nn2c(=O)c1-c1nnc(C(N)=O)o1 [Compound D1066, 5-(5-methyl-7-oxo-3-phenyl-2-(trifluoromethyl)-4,7-dihydropyrazolo[1,5-a]pyrimidin-6-yl)-1,3,4-oxadiazole-2-carboxamide]	< 20
Cc1[nH]c2c(-c3ccccc3)c(C(F)(F)F)nn2c(=O)c1C(=O)Nc1ccccc1OC1CCCC1 [Compound A1044, N-(2-(cyclopentyloxy)phenyl)-5-methyl-7-oxo-3-phenyl-2-(trifluoromethyl)-4,7-dihydropyrazolo[1,5-a]pyrimidine-6-carboxamide]	20 to 250
COc1c(Cl)cccc1NC(=O)c1c(C)[nH]c2c(-c3ccccc3)c(C(F)(F)F)nn2c1=O [Compound A1138, N-(3-chloro-2-methoxyphenyl)-5-methyl-7-oxo-3-phenyl-2-(trifluoromethyl)-4,7-dihydropyrazolo[1,5-a]pyrimidine-6-carboxamide]	20 to 250
Cc1noc(C)c1NC(=O)c1c(C)[nH]c2c(-c3ccccc3)c(C(F)(F)F)nn2c1=O [Compound A1019, N-(3,5-dimethylisoxazol-4-yl)-5-methyl-7-oxo-3-phenyl-2-(trifluoromethyl)-4,7-dihydropyrazolo[1,5-a]pyrimidine-6-carboxamide]	> 250
CN(Cc1ccccc1)C(=O)c1c[nH]c2c(-c3ccccc3)c(C(F)(F)F)nn2c1=O [Compound A1013, N-benzyl-N-methyl-7-oxo-3-phenyl-2-(trifluoromethyl)-4,7-dihydropyrazolo[1,5-a]pyrimidine-6-carboxamide]	> 250
COc1cc(F)c(F)cc1NC(=O)c1c(C)[nH]c2c(-c3ccccc3)c(C(F)(F)F)nn2c1=O [Compound A1080, N-(4,5-difluoro-2-methoxyphenyl)-5-methyl-7-oxo-3-phenyl-2-(trifluoromethyl)-4,7-dihydropyrazolo[1,5-a]pyrimidine-6-carboxamide]	20 to 250
Cc1[nH]c2c(-c3ccccc3)c(C(F)(F)F)nn2c(=O)c1C(=O)Nc1cccc(OCc2ccccc2)c1 [Compound A1086, N-(3-(benzyloxy)phenyl)-5-methyl-7-oxo-3-phenyl-2-(trifluoromethyl)-4,7-dihydropyrazolo[1,5-a]pyrimidine-6-carboxamide]	< 20
COc1cccc2oc(-c3c(C(=O)N4CCCCC4)[nH]c4c(-c5ccccc5)c(C(F)(F)F)nn4c3=O)nc12 [Compound C1186, 6-(4-methoxybenzo[d]oxazol-2-yl)-3-phenyl-5-(piperidine-1-carbonyl)-2-(trifluoromethyl)pyrazolo[1,5-a]pyrimidin-7(4H)-one]	20 to 250
Cc1[nH]c2c(-c3ccccc3)c(C(F)(F)F)nn2c(=O)c1C(=O)Nc1cccc(N(S(C)(=O)=O)S(C)(=O)=O)c1 [Compound A1046, 5-methyl-N-(3-(N-(methylsulfonyl)methylsulfonamido)phenyl)-7-oxo-3-phenyl-2-(trifluoromethyl)-4,7-dihydropyrazolo[1,5-a]pyrimidine-6-carboxamide]	20 to 250
COC(=O)Nc1ccccc1NC(=O)c1c(C)[nH]c2c(-c3ccccc3)c(C(F)(F)F)nn2c1=O [Compound A1038, methyl (2-(5-methyl-7-oxo-3-phenyl-2-(trifluoromethyl)-4,7-dihydropyrazolo[1,5-a]pyrimidine-6-carboxamido)phenyl)carbamate]	20 to 250
COc1cccc2oc(-c3c(C(=O)N(C)CC(=O)O)[nH]c4c(-c5ccccc5)c(C(F)(F)F)nn4c3=O)nc12 [Compound C1197, N-(6-(4-methoxybenzo[d]oxazol-2-yl)-7-oxo-3-phenyl-2-(trifluoromethyl)-4,7-dihydropyrazolo[1,5-a]pyrimidine-5-carbonyl)-N-methylglycine]	20 to 250
